Our source for the Activity and mortality values is ChEMBL document CHEMBL5257045, “Antiparasitic Activity of Two Natural Terpenes from Salvia cuspidata against Leishmania amazonensis” (2023).

Several values for one entry are separate records, joined by “and”; a condition that tells them apart may be missing. Equal values may be shown once. Activity calls are given as the source filed them. The calls are words filed in the database; no cut-off is given here.

The test system of one test is Leishmania donovani. The experiment in a line: Antileishmanial activity against Leishmania donovani MHOM/IN/83/AG83 promastigotes infected in BALB/c mouse assessed as reduction of parasite burden in spleen at 5 to 10 mg/kg per day. Type of test: functional, organism-based. The note with it: dose 5-10 mg/kg.
In test [1] the test system is Leishmania amazonensis. In words: Antileishmanial activity against Leishmania amazonensis MHOM/VE/84/MEL promastigotes assessed as parasite mortality at 38.4 uM measured after 1 day by dye exclusion method (reference value: 14.5 +/- 3.5). The note with it: 24 h. Type of test: functional.
Test [2] relates to Leishmania amazonensis. The experiment in a line: Antileishmanial activity against Leishmania amazonensis MHOM/VE/84/MEL promastigotes assessed as parasite mortality at 38.4 uM measured after 2 day by dye exclusion method (reference value: 11.6 +/- 3.3). Type of test: functional. The note with it: 48 h.
In test [3] the test system is Leishmania amazonensis. The experiment in a line: Induction of ROS generation in Leishmania amazonensis promastigotes assessed as reduction in endogenous GSH level at 4.3 to 29.2 uM incubated for 3 hrs by absorbance based analysis. The note with it: dose 4.3-29.2 µM. It is filed as functional, organism-based.
Test [4] concerns Leishmania amazonensis. In words: Antileishmanial activity against Leishmania amazonensis promastigotes infected in BALB/c mouse assessed as reduction of parasite burden at 1 mg/kg per day administered once a week for 4 weeks measured at 10 week by limit dilution assay. It is filed as functional, organism-based.
Test [5] deals with Leishmania amazonensis. In words: Antileishmanial activity against Leishmania amazonensis MHOM/VE/84/MEL promastigotes assessed as parasite mortality at 4.3 uM measured after 1 day by dye exclusion method (reference value: 14.5 +/- 3.5). Type of test: functional. The note with it: 24 h.
Test [6] relates to Leishmania amazonensis. In words: Antileishmanial activity against Leishmania amazonensis MHOM/VE/84/MEL promastigotes assessed as parasite mortality at 4.3 uM measured after 2 day by dye exclusion method (reference value: 11.6 +/- 3.3). The note with it: 48 h. Type of test: functional.
For test [7], the system named is Leishmania amazonensis. The experiment in a line: Antileishmanial activity against Leishmania amazonensis MHOM/VE/84/MEL promastigotes assessed as parasite mortality at 14.3 uM measured after 1 day by dye exclusion method (reference value: 14.5 +/- 3.5). Type of test: functional. The note with it: 24 h.
The subject of test [8] is Leishmania amazonensis. In words: Antileishmanial activity against Leishmania amazonensis MHOM/VE/84/MEL promastigotes assessed as parasite mortality at 14.3 uM measured after 2 day by dye exclusion method (reference value: 11.6 +/- 3.3). The note with it: 48 h. It is filed as functional.
Test [9] deals with Leishmania amazonensis. The experiment in a line: Antileishmanial activity against Leishmania amazonensis MHOM/VE/84/MEL promastigotes assessed as parasite mortality at 29.2 uM measured after 1 day by dye exclusion method (reference value: 14.5 +/- 3.5). Type of test: functional. The note with it: 24 h.
Test [10] deals with Leishmania amazonensis. The experiment in a line: Antileishmanial activity against Leishmania amazonensis MHOM/VE/84/MEL promastigotes assessed as parasite mortality at 29.2 uM measured after 2 day by dye exclusion method (reference value: 11.6 +/- 3.3). Type of test: functional. The note with it: 48 h.
Test [11] deals with Leishmania amazonensis. In words: Induction of ROS generation in Leishmania amazonensis promastigotes at 4.3 to 29.2 uM incubated for 48 hrs followed by probe addition measured after 1 hr by H2DCFDA probe based fluorometry analysis. The note with it: dose 4.3-29.2 µM, time 49.0 hrs. Type of test: functional, organism-based.
Test [12] deals with Leishmania amazonensis. The experiment in a line: Induction of ROS generation in Leishmania amazonensis promastigotes assessed as reduction in mitochondrial activity at 4.3 to 29.2 uM incubated for 48 hrs by MTT assay. The note with it: dose 4.3-29.2 µM. It is filed as functional, organism-based.
Test [13] relates to Leishmania amazonensis. In words: Antileishmanial activity against Leishmania amazonensis promastigotes infected in BALB/c mouse assessed as reduction in RHLF lesion size at 1 mg/kg per day administered once a week for 4 weeks measured at 10 week. It is filed as functional, organism-based.
In test [14] the test system is Leishmania amazonensis. The experiment in a line: Antileishmanial activity against Leishmania amazonensis promastigotes infected in BALB/c mouse assessed as reduction of splenic index at 1 mg/kg per day administered once a week for 4 weeks measured at 10 week. Type of test: functional, organism-based.
The test system of test [15] is Leishmania amazonensis. In words: Antileishmanial activity against Leishmania amazonensis promastigotes infected in BALB/c mouse assessed as reduction of IgG level at 1 mg/kg per day administered once a week for 4 weeks measured at 10 week by ELISA assay. Type of test: functional, organism-based.
For test [16], the system named is Leishmania amazonensis. The experiment in a line: Antileishmanial activity against Leishmania amazonensis promastigotes infected in BALB/c mouse assessed as reduction of IgG1 level at 1 mg/kg per day administered once a week for 4 weeks measured at 10 week by ELISA assay. Type of test: functional, organism-based.
For test [17], the system named is Leishmania amazonensis. In words: Antileishmanial activity against Leishmania amazonensis promastigotes infected in BALB/c mouse assessed as reduction of parasite burden at 400 mg/kg per day, ip administered for 30 days measured at 10 week by limit dilution assay. Type of test: functional, organism-based. The note with it: time 30.0 day.
The test system of test [18] is Leishmania amazonensis. In words: Antileishmanial activity against Leishmania amazonensis promastigotes infected in BALB/c mouse assessed as reduction in RHLF lesion size at 400 mg/kg per day, ip administered for 30 days. Type of test: functional, organism-based. The note with it: time 30.0 day.
The test system of test [19] is Leishmania amazonensis. The experiment in a line: Antileishmanial activity against Leishmania amazonensis promastigotes infected in BALB/c mouse assessed as wound closure at 400 mg/kg per day, ip administered for 30 days. It is filed as functional, organism-based. The note with it: time 30.0 day.
Test [20] relates to Leishmania amazonensis. In words: Antileishmanial activity against Leishmania amazonensis promastigotes infected in BALB/c mouse assessed as reduction of splenic index at 400 mg/kg per day, ip administered for 30 days measured at 10 week. Type of test: functional, organism-based. The note with it: time 30.0 day.
In test [21] the test system is Leishmania amazonensis. In words: Antileishmanial activity against Leishmania amazonensis promastigotes infected in BALB/c mouse assessed as reduction of IgG level at 400 mg/kg per day, ip administered for 30 days measured at 10 week by ELISA assay. Type of test: functional, organism-based. The note with it: time 30.0 day.
For test [22], the system named is Leishmania amazonensis. In words: Antileishmanial activity against Leishmania amazonensis promastigotes infected in BALB/c mouse assessed as reduction of IgG1 level at 400 mg/kg per day, ip administered for 30 days measured at 10 week by ELISA assay. The note with it: time 30.0 day. It is filed as functional, organism-based.

`C[C@@H]1CC[C@H]2[C@@H](C)C(=O)O[C@@H]3O[C@@]4(C)CC[C@@H]1[C@]32OO4`: in the test on Leishmania donovani, the result was Active.

As for `CC(=O)N1CCN(c2ccc(OCC3COC(Cn4ccnc4)(c4ccc(Cl)cc4Cl)O3)cc2)CC1` (configuration not stated) [KETOCONAZOLE], the values for the mortality at 38.4 µM in the test with Leishmania amazonensis [1] and in the test with Leishmania amazonensis [2] were 48.5% and 79.4%, respectively.

Regarding `CC(C)C1=C(O)C(=O)C2=C(C=C[C@H]3[C@]4(CCC[C@]3(C)C(=O)O4)C2)C1=O`, the outcome with Leishmania amazonensis [3], in the test on Leishmania amazonensis [4], in the test with Leishmania amazonensis [11], in the test on Leishmania amazonensis [12], with Leishmania amazonensis [13] and with Leishmania amazonensis [14] was Active. Also, the result with Leishmania amazonensis [15] and in the test with Leishmania amazonensis [16] was Active. Further, the mortality in the test with Leishmania amazonensis [5] was 10% and 26.5%. Also, in the test on Leishmania amazonensis [6], the mortality at 4.3 µM turned out to be 26.5%. Further, the mortality at 14.3 µM with Leishmania amazonensis [7] came out at 47%; with Leishmania amazonensis [8], 51.5%. Also, the mortality at 29.2 µM was found to be 65% in the test with Leishmania amazonensis [9] and 77.5% with Leishmania amazonensis [10].

For the compound MEGLUMINE ANTIMONATE, the outcome in the test with Leishmania amazonensis [17], with Leishmania amazonensis [18], in the test with Leishmania amazonensis [20], in the test on Leishmania amazonensis [21] and with Leishmania amazonensis [22] was Active. Further, the result with Leishmania amazonensis [19] was inactive.

On to `C[C@@]12CCC[C@]3(COC1=O)CC1=C(C=C[C@@H]32)C(=O)C=C(O)C1=O`, for which the outcome in the test on Leishmania amazonensis [3], with Leishmania amazonensis [4], with Leishmania amazonensis [11], with Leishmania amazonensis [12], in the test on Leishmania amazonensis [13] and with Leishmania amazonensis [14] was Active. For the same compound, the result in the test with Leishmania amazonensis [15] and with Leishmania amazonensis [16] was Active. Further, the mortality in the test with Leishmania amazonensis [5] was 33.5% and 87.5%. Besides, in the test with Leishmania amazonensis [6], the mortality at 4.3 µM stood at 87.5%. In addition, the values for the mortality at 14.3 µM in the test with Leishmania amazonensis [7] and in the test on Leishmania amazonensis [8] were 55% and 92%, respectively. Further, the mortality at 29.2 µM with Leishmania amazonensis [9] is 96.5%; in the test with Leishmania amazonensis [10] it was 98.5%.
